Measured values published in US7795235B2, “Semi-soft c-class immunostimulatory oligonucleotides” (Coley Pharmaceutical GmbH, priority 2004, dated 2010).
Oligonucleotides are written 5' to 3', each unit as a sugar letter and its base; * is a phosphorothioate linkage, no mark a phosphodiester; rarer units and linkages stand in square brackets, end groups in braces. Plain capitals give the bases only. d = 2'-deoxy (DNA)

Legend:
guinea pigs [1] = assay: Antigen-induced increase in nasal resistance in guinea pigs; type: in vivo, guinea pig; details: 0.03-1 mg/kg intranasal, over 40 minutes after challenge, FIG. 2
Protocol: Guinea pigs (male, Hartley) were sensitized with antigen (ovalbumin, 5 mg both intraperitoneal and subcutaneous) on study day 0. A boost sensitization (5 mg, intraperitoneal) was given on study day 4. Guinea pigs were antigen challenged by exposure to intranasally-administered antigen twice each week for two consecutive weeks. The first challenge was on study day 14. SEQ ID NO:7 (lot number AQE-03J-001-M, 0.03-1 mg/kg in […] saline) was administered intranasally once each week, two days before the first antigen challenge of the week. With the exception of the final challenge on study day 24, antigen challenge was with ovalbumin (1.5 mg/kg in 150 μl/kg saline). Animals were pretreated with mepyramine (10 mg/kg, intraperitoneal) 30 minutes before challenge to protect against histamine-induced anaphylaxis. On study day 24, guinea pigs were anesthetized to allow measurement of nasal resistance using a Buxco respiratory mechanics system and software. […] Nasal resistance was measured for 40 minutes after challenge.
Methods: To investigate the effects of the CpG oligodeoxynucleotide SEQ ID NO:7 against antigen induced increases in nasal resistance in the guinea pigs guinea pigs were sensitized with antigen, then antigen-challenged nasally. Nasal resistance was measured for 40 minutes after challenge.

BALB/c mice [2] = assay: Mouse model of allergic rhinitis (sneezing, nasal rubbing); type: in vivo; details: intranasal, 10 minute period after antigen challenge, FIG. 3
Protocol: Mice (male BALB/c) were sensitized on study days 0 and 7 with antigen (ovalbumin, 100 μg, i.p.) with aluminum hydroxide adjuvant (Pierce Alum i.p.). Mice were antigen challenged daily by exposure to intranasally-administered antigen (1 mg in 10 μl saline). The first challenge was on study day 14. SEQ ID NO:7 was administered intranasally twice. The first dose was given 2 days before the first antigen challenge. The second dose was given 7 days later. Alternatively, budesonide (an anti-inflammatory, synthetic corticosteroid) was administered intranasally daily. The first dose was given 2 days before the first antigen challenge. On each day, the budesonide dose was administered intranasally 4 hours before intranasal antigen challenge. Endpoints were measured on study day 26 (i.e. 7 days after the second dose of SEQ ID NO: 7. Nasal tissues were taken for histopathological assessment of inflammation. Separate mice received a final antigen challenge and incidences of sneezing and nasal rubbing were counted for a 10 minute period after challenge.
Methods: BALB/c mice were used to study the effects of SEQ ID NO:7 on symptoms of allergic rhinitis. […] Separate mice received a final antigen challenge and incidences of sneezing and nasal rubbing were counted for a 10 minute period after challenge.

BALB/c mice [3] = assay: Antigen-induced IgE and IgG2a production in the mouse; type: in vivo; details: i.p. 1-1000 μg/kg, serum study day 18, FIG. 19
Protocol: Methods: Mice (male BALB/c) were sensitized on study days 0 and 7 with antigen (ovalbumin, 10 μg, i.p.) and aluminum hydroxide adjuvant Pierce Alum, i.p.). Mice received SEQ ID NO:2 or SEQ ID NO:7 on study days −2, 0, 5 and 7 (i.e. two days before each sensitization and on the day of sensitization). Mice were bled by cardiac puncture on study day 18. Serum was collected by centrifugation and assayed by ELISA for ovalbumin-specific IgE and IgG2a.

guinea pigs [4] = assay: Guinea pig AHR protocol (airway resistance and lung compliance); type: in vivo; details: guinea pigs, 10, 30, 100 or 300 μl/kg, i.t.
Protocol: Male guinea pigs were sensitized on study days 0 and 4 with antigen (ovalbumin, 0.5 ml, 1% OVA i.p./s.c.) with aluminum hydroxide adjuvant. Guinea pigs were antigen challenged by exposure to inhaled ovalbumin aerosol, twice each week for two consecutive weeks. The first challenge was on study day 13. CpG ODN or vehicle (saline, 20 μl) were administered intranasally once each week, two days before the first antigen challenge of the week. Airways hyperreactivity was assessed 24 hours after the last antigen challenge by measuring bronchoconstriction (increase in airway resistance) to intravenous methacholine. For each animal, a dose-response curve to methacholine was obtained, and airway reactivity was quantified as the area under the curve.
Method: Guinea pigs were sensitized as described in Example 10. The first challenge was on study day 13. Guinea pigs were given intranasally either carrier (saline), OVA alone, of concentrations of SEQ ID NO:7 of 10 μl/kg, 30 μl/kg, 100 μl/kg, or 300 μl/kg, i.t.
Method: Guinea pigs were sensitized as described in Example 10. The first challenge was on study day 13. Guinea pigs were given intranasally either carrier (saline), OVA alone, of concentrations of SEQ ID NO:2 of 10 μl/kg, 30 μl/kg, 100 μl/kg, or 300 μl/kg, i.t.

human PBMC = assay: Cytokine secretion (IL-10, TNF-alpha, interferon-gamma, IL-6) from human PBMC; type: cell-based; details: human PBMC (3 donors), 48 hours, ELISA, FIG. 27
Protocol: Peripheral blood buffy coat preparations from healthy male and female human donors were obtained from the Blood Bank of the University of Düsseldorf (Germany) and from these, PBMC were purified by centrifugation over Ficoll-Hypaque (Sigma). The purified PBMC were either used freshly (for most assays) or were suspended in freezing medium and stored at −70° C. When required, aliquots of these cells were thawed, washed and resuspended in RPMI 1640 culture medium (BioWhittaker, Belgium) supplemented with 5% (v/v) heat inactivated human AB serum (BioWhittaker, Belgium) or 10% (v/v) heat inactivated FCS, 2 mM L-glutamine (BioWhittaker), 100 U/ml penicillin and 100 μg/ml streptomycin (Invitrogen (Karlsruhe, Germany)).
Thawed or fresh PBMC were seeded on 48 well flat-bottom plates, or 96 well round-bottom plates, and incubated with ODN in the concentrations as indicated in a humidified incubator at 37° C. Culture supernatants were collected and if not used immediately, were frozen at −20° C. until required. Amounts of cytokines in the supernatants were assessed using commercially available ELISA Kits (Diaclone, USA) or in-house ELISAs developed using commercially available antibodies (from Becton Dickinson/Pharmingen or PBL). […]

human TLR9 = molecular target: T1, human TLR9 (Homo sapiens, UniProt Q9NR96); assay: Stimulation of TLR9-transfected cells in vitro (luciferase readout); type: cell-based; details: quotient between highest value of all concentrations tested and medium control
T1 construct: expressed in transfected cells; host or cells: HEK 293
T1 sequence (Q9NR96 26-1032): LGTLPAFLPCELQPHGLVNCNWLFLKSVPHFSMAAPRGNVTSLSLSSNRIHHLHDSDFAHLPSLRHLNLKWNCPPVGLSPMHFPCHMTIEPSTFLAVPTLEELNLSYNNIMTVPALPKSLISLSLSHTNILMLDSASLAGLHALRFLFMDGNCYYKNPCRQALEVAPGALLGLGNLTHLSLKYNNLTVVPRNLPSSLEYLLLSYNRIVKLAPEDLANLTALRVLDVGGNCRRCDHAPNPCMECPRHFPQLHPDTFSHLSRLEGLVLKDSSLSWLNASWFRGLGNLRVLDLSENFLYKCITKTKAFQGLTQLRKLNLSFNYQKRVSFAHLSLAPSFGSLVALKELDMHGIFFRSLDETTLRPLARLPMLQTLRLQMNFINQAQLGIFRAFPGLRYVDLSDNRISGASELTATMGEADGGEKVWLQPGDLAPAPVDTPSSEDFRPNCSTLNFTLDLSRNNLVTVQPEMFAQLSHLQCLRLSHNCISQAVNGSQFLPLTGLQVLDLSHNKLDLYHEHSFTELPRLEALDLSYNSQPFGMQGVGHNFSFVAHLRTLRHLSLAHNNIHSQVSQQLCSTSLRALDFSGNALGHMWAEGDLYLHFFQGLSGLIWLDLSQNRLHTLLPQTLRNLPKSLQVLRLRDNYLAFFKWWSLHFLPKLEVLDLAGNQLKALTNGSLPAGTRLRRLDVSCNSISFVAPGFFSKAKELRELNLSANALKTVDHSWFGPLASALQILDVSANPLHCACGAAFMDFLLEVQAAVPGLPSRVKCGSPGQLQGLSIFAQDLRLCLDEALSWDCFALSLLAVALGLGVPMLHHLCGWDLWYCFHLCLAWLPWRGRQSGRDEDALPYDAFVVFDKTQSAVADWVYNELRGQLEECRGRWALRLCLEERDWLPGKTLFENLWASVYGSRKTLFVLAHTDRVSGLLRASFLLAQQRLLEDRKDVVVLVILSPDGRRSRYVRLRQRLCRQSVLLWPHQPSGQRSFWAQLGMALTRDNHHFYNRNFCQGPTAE
Protocol: Methods: HEK 293 cells transfected with human TLR9 were incubated with SEQ ID NO:1, SEQ ID NO:2, SEQ ID NO:3, SEQ ID NO:4, SEQ ID NO:5, or SEQ ID NO:6 for 16 hours. The signal was determined by a luciferase readout.
The EC50 was calculated using Sigma Plot (SigmaPlot 2002 for Windows version 8.0). The maximal stimulation index (max SI) was calculated as the quotient between the highest value of all concentrations tested for any ODN and the medium control.

T*C_G*T*C_G*T*T*T*T*G*A*C_G*T*T*T*T*G*T*C_G*T*T (DNA dT*dCdG*dT*dCdG*dT*dT*dT*dT*dG*dA*dCdG*dT*dT*dT*dT*dG*dT*dCdG*dT*dT) [SEQ ID NO: 7, Semi-soft class B CpG ODN included for comparison, reference compound]
antigen-induced increase in nasal resistance (guinea pigs [1]): significantly suppressed
incidence of nasal rubbing (BALB/c mice [2]): suppressed
incidence of sneezing (BALB/c mice [2]): suppressed
production of antigen (ovalbumin)-specific IgE (BALB/c mice [3]): suppressed
production of antigen (ovalbumin)-specific IgG2a (BALB/c mice [3]): potentiated
AUC-resistance (airway reactivity, area under the dose-response curve) (guinea pigs [4]): dose-dependent reduction

2 (T*C_G*T*C_G*T*C_G*T*T*C_G*G*C*G*C_G*C*G*C*C*G; as printed in the source, key not given here) [compound 2]
induction of IL-10 (human PBMC): dramatically higher induction

T*C_G*T*C_G*T*T*C_G*G*C*G*C*G*C*C*G (DNA TCGTCGTTCGGCGCGCCG; DNA, backbone and methylation of C not given here; Stabilized (*) and phosphodiester or phosphodiester-like (_) linkages) [SEQ ID NO: 3, Semi-soft class C CpG ODN]
max SI (maximal stimulation index) (human TLR9): 16

T*C_G*T*C_G*A*C_G*T*T*C_G*G*C*G*C_G*C*G*C*C*G (DNA dT*dCdG*dT*dCdG*dA*dCdG*dT*dT*dCdG*dG*dC*dG*dCdG*dC*dG*dC*dC*dG) [SEQ ID NO: 1, Semi-soft class C CpG ODN]
max SI (maximal stimulation index) (human TLR9): 22
induction of IL-10 (human PBMC): dramatically higher induction

T*T*T*C_G*T*C_G*T*T*T*C_G*T*C_G*T*T (DNA TTTCGTCGTTTCGTCGTT; DNA, backbone and methylation of C not given here; Stabilized (*) and phosphodiester or phosphodiester-like (_) linkages) [SEQ ID NO: 6]
max SI (maximal stimulation index) (human TLR9): 11

T*T*C_G*T*C_G*T*T*T*T_G*T*C_G*T*T (DNA TTCGTCGTTTTGTCGTT; DNA, backbone and methylation of C not given here; Stabilized (*) and phosphodiester or phosphodiester-like (_) linkages) [SEQ ID NO: 5]
max SI (maximal stimulation index) (human TLR9): 13

T*C_G*T*C_G*A*C_G*A*T*C_G*G*C*G*C_G*C*G*C*C*G (DNA TCGTCGACGATCGGCGCGCGCCG; DNA, backbone and methylation of C not given here; Stabilized (*) and phosphodiester or phosphodiester-like (_) linkages) [SEQ ID NO: 4]
max SI (maximal stimulation index) (human TLR9): 14
